System: leaves of Tagetes patula plants of genotypes TAG 80 and TAG 81
Test: Determination of phosphinothricin (PPT) toxicity on leaf explants
Format: cell-based
Settings: leaf disks 10-60 mm^2 on MS medium with 2% sucrose, 3 mg/l BAP, 1 mg/l IAA; 2 weeks; both genotypes TAG 80 and TAG 81
Procedure: Leaves of Tagetes patula plants of genotypes TAG 80 and TAG 81 (Genbank, IPK Gatersleben) which were established in vitro were cut transversely to the central vein into disks 10-60 mm^2 in size and placed on MS medium supplemented with 2% sucrose, 3 mg/l benzylaminopurine (BAP), 1 mg/l indoleacetic acid (IAA) and different PPT concentrations. Incubation was for 2 weeks in a 16/8 hour light/dark photoperiod at approx. 50 μE/m^2s and at from 21 to 24° C. Then, the number of damaged explants was recorded with reference to the total number of tested explants (FIG. 2). In both Tagetes patula genotypes tested, concentrations starting at 1 mg/l PPT led to the complete destruction of all explants, which is why this concentration was used for the selection after cocultivation.

CP(=O)(O)CC[C@H](N)C(=O)O [PPT, phosphinothricin]
PPT concentration leading to the complete destruction of all explants: ≥ 1 mg/L
